23 compounds from PubChem BioAssay AID292 (DTP/NCI, 2004) can be followed below.

Values joined by “and” are separate entries in the source; they are usually repeats but may differ in a detail not shown here. Equal entries are not always repeated. Toxic doses and inconclusive results are not listed.

This test relates to B6C3F1 mice, ip Sarcoma M5076, median survival T/C. Kind of test: NCI In Vivo Anticancer Drug Screen. Data for tumor model Sarcoma M5076 (intraperitoneal) in B6C3F1 mice. The settings on record: endpoint: median survival time, higher = longer survival. The procedure, abridged:
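Mice carrying the transplanted tumour received compound treatment. Survival was recorded, and each value is the treated-group measurement divided by that of the vehicle-dosed control group.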

Setting [1] is: dose: 50.0 mg/kg/injection, schedule: Q04DX004 (ip), vehicle: Klucel (hydroxypropylcellulose) (HPC).
Setting [2] is: dose: 100.0 mg/kg/injection, schedule: Q04DX004 (ip), vehicle: Klucel (hydroxypropylcellulose) (HPC).
The mark [3] stands for this setting: dose: 200.0 mg/kg/injection, schedule: Q04DX004 (ip), vehicle: Klucel (hydroxypropylcellulose) (HPC).
Setting [4] is: dose: 400.0 mg/kg/injection, schedule: Q04DX004 (ip), vehicle: Klucel (hydroxypropylcellulose) (HPC).
Where [5] appears, read: dose: 37.5 mg/kg/injection, schedule: Q04DX004 (ip), vehicle: saline with Tween-80.
Where [6] appears, read: dose: 75.0 mg/kg/injection, schedule: Q04DX004 (ip), vehicle: saline with Tween-80.
The mark [7] stands for this setting: dose: 150.0 mg/kg/injection, schedule: Q04DX004 (ip), vehicle: saline with Tween-80.
The mark [8] stands for this setting: dose: 50.0 mg/kg/injection, schedule: Q04DX004 (ip), vehicle: saline with Tween-80.
Where [9] appears, read: dose: 100.0 mg/kg/injection, schedule: Q04DX004 (ip), vehicle: saline with Tween-80.
[10] abbreviates: dose: 400.0 mg/kg/injection, schedule: Q04DX004 (ip), vehicle: saline with Tween-80.
Where [11] appears, read: dose: 12.5 mg/kg/injection, schedule: Q04DX004 (ip), vehicle: saline with Tween-80.
[12] abbreviates: dose: 25.0 mg/kg/injection, schedule: Q04DX004 (ip), vehicle: saline with Tween-80.
The mark [13] stands for this setting: dose: 200.0 mg/kg/injection, schedule: Q04DX004 (ip), vehicle: saline with Tween-80.
The mark [14] stands for this setting: dose: 6.25 mg/kg/injection, schedule: Q04DX004 (ip), vehicle: saline with Tween-80.

For the compound `COc1cc(C#N)c(NC(=S)N2CCN(C(=O)c3ccco3)CC2)cc1OC`, the T/C reads like this: under setting [1], 98 % of control; under setting [2], 111 % of control; under setting [3], 103 % of control; under setting [4], 90 % of control.

As for `N#CC1C(=O)NC(=O)C(C#N)C1c1ccc(Cl)c(Cl)c1` (centres undefined), the T/C runs as follows: under setting [1], 102 % of control; under setting [2], 94 % of control; under setting [3], 99 % of control; under setting [4], 102 % of control.

Consider `CC1=C(C(N)=O)C(c2ccccc2)NC(=S)N1` (centres undefined), for which the T/C is, setting by setting: under setting [1], 107 % of control; under setting [2], 99 % of control; under setting [3], 104 % of control.

On to `Cc1nn(-c2ccccn2)c2ncnc(N)c12`, for which the T/C under setting [5] was 106 % of control, the T/C under setting [6] was 102 % of control and the T/C under setting [7] was 86 % of control.

Consider `O=S1(=O)C(c2ccccc2)=C(O)c2cc3ccccc3nc21`, for which the T/C was 97 % of control (dose: 31.25 mg/kg/injection, schedule: Q04DX004 (ip), vehicle: saline with Tween-80); 108 % of control (dose: 62.5 mg/kg/injection, schedule: Q04DX004 (ip), vehicle: saline with Tween-80); 93 % of control (dose: 125.0 mg/kg/injection, schedule: Q04DX004 (ip), vehicle: saline with Tween-80); 102 % of control (dose: 250.0 mg/kg/injection, schedule: Q04DX004 (ip), vehicle: saline with Tween-80).

As for `O=c1[nH]c2cc3c(cc2n2cccc12)oc1ccccc13`, the T/C reads like this: under setting [8], 90 % of control; under setting [9], 98 % of control; under setting [10], 90 % of control.

For `CC(=O)Nc1ccc(Nc2ccc(C(=C3C=CC(=[N+](C)CCC#N)C=C3)c3ccc(N(C)CCC#N)cc3)cc2)cc1`, the T/C by setting is: under setting [11], 101 % of control; under setting [12], 101 % of control; under setting [8], 99 % of control; under setting [9], 100 % of control; under setting [13], 92 % of control.

Take `COc1cc(C2=NCCc3cc4c(cc32)OCO4)cc(OC)c1OC`: the T/C by setting is: (dose: 12.5 mg/kg/injection, schedule: Q04DX004 (ip), vehicle: saline) 106 % of control; (dose: 25.0 mg/kg/injection, schedule: Q04DX004 (ip), vehicle: saline) 106 % of control; (dose: 50.0 mg/kg/injection, schedule: Q04DX004 (ip), vehicle: saline) 106 % of control; (dose: 100.0 mg/kg/injection, schedule: Q04DX004 (ip), vehicle: saline) 110 % of control.

Consider `COc1nc(C(Cl)(Cl)Cl)c(Cl)c(OC)c1Cl`, for which the T/C is 99 % of control under setting [1]; 114 % of control under setting [2]; 152 % of control (dose: 179.0 mg/kg/injection, schedule: Q04DX004 (ip), vehicle: Klucel (hydroxypropylcellulose) (HPC)); 121 % of control (dose: 179.6 mg/kg/injection, schedule: Q04DX004 (ip), vehicle: Klucel (hydroxypropylcellulose) (HPC)); 168 % of control under setting [4].

As for `O=C1CNC(=O)N1CN1CCOCC1`, the T/C is 110 % of control under setting [1]; 106 % of control under setting [2]; 108 % of control under setting [3]; 115 % of control under setting [4]; 106 % of control (dose: 800.0 mg/kg/injection, schedule: Q04DX004 (ip), vehicle: Klucel (hydroxypropylcellulose) (HPC)).

Regarding `O=c1[nH]c(=O)n(C2OC(CF)C(O)C2O)cc1N1CCOCC1` (centres undefined), the T/C was 100 % of control (dose: 17.5 mg/kg/injection, schedule: Q04DX004 (ip), vehicle: saline); 104 % of control (dose: 35.0 mg/kg/injection, schedule: Q04DX004 (ip), vehicle: saline); 97 % of control (dose: 70.0 mg/kg/injection, schedule: Q04DX004 (ip), vehicle: saline); 104 % of control (dose: 140.0 mg/kg/injection, schedule: Q04DX004 (ip), vehicle: saline); 102 % of control (dose: 280.0 mg/kg/injection, schedule: Q04DX004 (ip), vehicle: saline).

`O=C(Nc1ccccc1)c1cc2ccccc2oc1=O`: the T/C is 94 % of control (dose: 28.13 mg/kg/injection, schedule: Q04DX004 (ip), vehicle: saline with Tween-80) and 92 % of control (dose: 56.25 mg/kg/injection, schedule: Q04DX004 (ip), vehicle: saline with Tween-80).

`NCCn1c(-c2ccccc2)nc2ccccc2c1=O`: the T/C is 106 % of control (dose: 25.0 mg/kg/injection, schedule: Q04DX004 (ip), vehicle: Klucel (hydroxypropylcellulose) (HPC)); 102 % of control under setting [1]; 109 % of control under setting [2]; 94 % of control under setting [3].

Regarding `CCNC(=O)[B-][N+](C)(C)C`, the T/C is, setting by setting: under setting [8], 96 % of control; under setting [9], 104 % of control; under setting [13], 102 % of control; under setting [10], 92 % of control.

For the compound `C[C@@]12C(=O)OC(=O)[C@]1(C)[C@H]1CC[C@@H]2O1`, the T/C is 100 % of control (dose: 125.0 micrograms/kg/injection, schedule: Q01DX009 (ip), vehicle: acetone); 115 % of control (dose: 250.0 micrograms/kg/injection, schedule: Q01DX009 (ip), vehicle: acetone); 116 % of control (dose: 500.0 micrograms/kg/injection, schedule: Q01DX009 (ip), vehicle: acetone); 100 % of control (dose: 1000.0 micrograms/kg/injection, schedule: Q01DX009 (ip), vehicle: acetone).

Consider `CNCCN=c1ccc2c3c1c(O)c1c(O)ccc(=O)c1c3[nH]n2CCNCCO`, for which the T/C reads like this: (dose: 0.75 mg/kg/injection, schedule: Q04DX004 (ip), vehicle: water) 156 % of control; (dose: 1.5 mg/kg/injection, schedule: Q04DX004 (ip), vehicle: water) 162 % of control; (dose: 3.0 mg/kg/injection, schedule: Q04DX004 (ip), vehicle: water) 204 % of control; (dose: 6.25 mg/kg/injection, schedule: Q04DX004 (ip), vehicle: water) 245 % of control; (dose: 12.5 mg/kg/injection, schedule: Q04DX004 (ip), vehicle: water) 90 % of control.

Turning to `OC1(c2cccc(Cl)c2)C2=NCCCN2c2ccccc21` (centres undefined), the T/C reads like this: under setting [14], 102 % of control; under setting [11], 103 % of control; under setting [12], 100 % of control; under setting [8], 99 % of control.

Consider `CC1/C=C/C=C/CC/C=C/C=C/C=C/C=C/C(OC2OC(C)C(O)C(N)C2O)CC2OC(CC(O)C(O)CCC(O)CC(O)CC(O)CC(=O)OC(C)C(C)C1O)CC(O)C2C(=O)O` (centres undefined), for which the T/C is 122 % of control under setting [14]; 117 % of control under setting [11]; 118 % of control and 122 % of control under setting [12]; 96 % of control and 97 % of control under setting [8]; 96 % of control and 107 % of control under setting [9].

For the compound `CCOc1c2c(nn(C)c1=O)Oc1ccccc1N2CCCN1CCOCC1`, the T/C (dose: 7.5 mg/kg/injection, schedule: Q04DX004 (ip), vehicle: saline with Tween-80) is 92 % of control; the T/C (dose: 15.0 mg/kg/injection, schedule: Q04DX004 (ip), vehicle: saline with Tween-80) was 106 % of control; the T/C (dose: 30.0 mg/kg/injection, schedule: Q04DX004 (ip), vehicle: saline with Tween-80) is 113 % of control; the T/C (dose: 60.0 mg/kg/injection, schedule: Q04DX004 (ip), vehicle: saline with Tween-80) is 97 % of control.

Consider `CC(O)CCC(=O)c1ccoc1` (centres undefined), for which the T/C (dose: 1.25 mg/kg/injection, schedule: Q03HX012 (ip), vehicle: saline) is 105 % of control; the T/C (dose: 2.5 mg/kg/injection, schedule: Q03HX012 (ip), vehicle: saline) is 95 % of control; the T/C (dose: 5.0 mg/kg/injection, schedule: Q03HX012 (ip), vehicle: saline) was 88 % of control; the T/C (dose: 10.0 mg/kg/injection, schedule: Q03HX012 (ip), vehicle: saline) was 100 % of control.

With `O=C1NC2(CN3CCC2CC3)C(=O)N1CN(Cc1ccccc1)c1ccccc1` (centres undefined), the T/C under setting [8] is 97 % of control; the T/C under setting [9] was 102 % of control; the T/C under setting [13] is 93 % of control; the T/C under setting [10] is 87 % of control; the T/C (dose: 800.0 mg/kg/injection, schedule: Q04DX004 (ip), vehicle: saline with Tween-80) is 90 % of control.

Consider `O=S(=O)(O)C1=CC(=N\Cl)/C=CC/1=N/Cl`, for which the T/C by setting is: under setting [5], 104 % of control; under setting [6], 104 % of control; under setting [7], 106 % of control; (dose: 300.0 mg/kg/injection, schedule: Q04DX004 (ip), vehicle: saline with Tween-80) 108 % of control.

On to `O=S1ON=C(C2CCC(C3=NOS(=O)O3)C2)O1` (centres undefined), for which the T/C runs as follows: under setting [12], 108 % of control; under setting [8], 102 % of control; under setting [9], 103 % of control; under setting [13], 87 % of control.
